Reference: US11542282B2, “Low affinity poly(AD-ribose) polymerase 1 dependent cytotoxic agents” (THE TRUSTEES OF THE UNIVERSITY OF PENNSYLVANIA, priority 2018, dated 2023)

Columns and labels:
[1] = system: MEF PARP-2 (-/-) KO cells; assay: Cell viability assay in MEF PARP-2 KO-/- cells; assay type: cell-based, mouse; conditions: Mus musculus, NA = Not applicable, no cell death observed
Experimental: (§1) Genetically engineered PARP-1 and PARP-2 double knockout mouse embryonic fibroblast (MEF) were used for cell viability studies with wildtype control.
(§2) Cell viability assays were carried out using four cell lines including OVCAR8, MEF wt, MEF PARP-1 (−/−) KO, and MEF PARP-2 (−/−) KO as described in Makvandi cited above. Briefly, cells were seeded in black wall clear bottom 96-well plates at concentrations of 1,000 cells/well. […] Plates were read on an Enspire multimode plate reader (Perkin Elmer). Data was normalized to percent survival at each concentration evaluated by diving the luminescent signal in treated wells vs. the average of vehicle controls. Experiments were repeated three times and all compounds were assayed during each experiment.
(§3) This isogenic model was selected due to the highly conserved nature of the PARP catalytic domain, all-owing investigation in enzyme specificity.
The cell cytotoxicity profile of these selected compounds in MEF PARP-2 KO−/− cell lines was then analyzed as described above.

PARP-1 = PARP-1 (Homo sapiens, UniProt P09874); assay: PARP-1 radioligand binding in live OVCAR8 cells ([125I]KX1 competition); conditions: for IC50: radioligand binding in OVCAR8 cells
Experimental: (§4) Cells were cultured using standard techniques at 37° C. with 5% CO2 and 15% 02. […] Genetically engineered PARP-1 and PARP-2 double knockout mouse embryonic fibroblast (MEF) were used for cell viability studies with wildtype control. All cells were cultured in RPMI 1640 with 10% FBS and 1% penicillin/streptomycin.
The affinity of each compound for the PARP-1 enzyme was evaluated using a radioligand binding method described in Makvandi, A radiotracer strategy to quantify PARP-1 expression in vivo provides a biomarker that can enable patient selection for PARP inhibitor therapy. Cancer Research 2016. Briefly, OVCAR8 ovarian cancer cells were seeded in 96-well Stripwell plates at a density of 40,000 cells/well 24 hrs prior to the study. On the day of study, compounds were diluted in RPMI to concentrations of 100 μM-0.064 nM. […] Reactions were allowed to equilibrate for 1 hr and were then washed with 200 μL of PBS. Wells were separated and counted on an automatic Wizard gamma counter (Perkin Elmer, Waltham Mass.). […] Experiments were repeated three times with adjusting dose concentrations to increase accuracy of IC50 values.
Compounds 10-17 were evaluated for PARP-1 inhibition using a radioligand binding assay protocol with BRCA1 methylated ovarian cancer cells (OVCAR8) as described above. See, Table 3. […] Compared to 1a, oxaazaspiro analogue 1b performed slightly better with scaffold 10b displaying a PARP-1 binding value of 24.9 nM.

[2] = system: MEF PARP-1 (-/-) KO cells; assay: Cell viability assay in MEF PARP-1 KO-/- cells; assay type: cell-based; conditions: Mus musculus, NA = Not applicable, no cell death observed
Experimental: as §1, §2, §3
Enzyme dependency of selected compounds in MEF PARP-1 KO−/− cells (FIG. 2B) was performed as described above in order to identify if these analogues act through other cellular targets.

MEF WT cells = assay: Cell viability assay in MEF WT cells; assay type: cell-based, mouse; conditions: NA = Not applicable, no cell death observed
Experimental: as §1, §2, §3

OVCAR8 cells = assay: Cell viability / cytotoxicity assay in OVCAR8 cells (CellTiter Glo); assay type: cell-based; conditions: Homo sapiens, OVCAR-8, Table 4
Experimental: as §4
Cell viability assays were carried out using four cell lines including OVCAR8, MEF wt, MEF PARP-1 (−/−) KO, and MEF PARP-2 (−/−) KO as described in Makvandi cited above. Briefly, cells were seeded in black wall clear bottom 96-well plates at concentrations of 1,000 cells/well. After 24 h, cells were then treated with concentrations from 100-0.016 μM. Cells were incubated with compounds for 4-7 days and then assayed for cell viability using the luminescent based assay, CellTiter Glo (Promega, Waltham Mass.). Plates were read on an Enspire multimode plate reader (Perkin Elmer). Data was normalized to percent survival at each concentration evaluated by diving the luminescent signal in treated wells vs. the average of vehicle controls. Experiments were repeated three times and all compounds were assayed during each experiment.
Cytotoxicity was then examined in OVCAR8 cells at 1, 10 and 100 μm concentrations as described above. See, FIGS. 1A-1C.
EC50 values of compounds 18-103 were obtained using OVCAR8 cells. See, Table 4.

[3] = Metabolite analysis of monkey blood from the imaging studies; assay type: in vivo, rhesus macaques
Experimental: (§5) All animal studies were performed under protocols approved by the University of Pennsylvania Institutional Animal Care and Use Committee. Male rhesus macaques (13-21 year old) were sedated with ketamine/dexdomidor and anesthesia maintained for imaging with 1% isoflurane. Temperature was maintained with a recirculating water warm pad and vital signs such as blood pressure, pulse oximetry, and EKG were monitored continuously. Three rhesus macaques were scanned on the G-PET, a high sensitivity, high resolution PET scanner using gadolinium orthosilicate crystals incorporated into an Anger-logic detector developed for brain imaging. […]
The blood samples were centrifuged at 3000 G for 10 min to separate plasma and red blood cells. […] After the supernatant had been separated from the pellet, each portion was counted with a gamma counter (PerkinElmer Wizard 2480) to determine the extraction efficiency. […] The collected HPLC fractions were measured by Gamma Counter for further data analysis. Meanwhile the cold reference was also injected and monitored at 254 nm UV wavelength.
(§6) These images are similar to the those obtained and expected with [^18F]FTT (FIG. 5B), showing the PARPi to be non-BBB penetrable. Metabolic stability of [^18F]31 was assessed using the monkey blood from each imaging study and found 42% and 45% of the parent compound intact at 40 min and 37 min, respectively.

[4] = PET imaging of brain uptake in rhesus macaques; assay type: in vivo; conditions: intravenous injection, all brain regions, FIG. 5A
Experimental: as §5, with “imaging. Data was acquired for up to 50 min (6×10 sec, 3×60 sec, 3×120 sec, 3×180 sec, 4×300 sec, and 1 ×600 sec) in list mode after an intravenous injection of 101.6 MBq [^18F]FTT to one of the rhesus macaques, and 91.4-128.8 MBq [^18F]31 to two of the rhesus macaques. A venous blood sample was drawn into a heparinized syringe at 37 min post […] injection for metabolite analysis.” for “imaging.”
as §6

[5] = Metabolic stability in rodent studies (mice blood and brain); assay type: in vivo; conditions: 5 min
Experimental: Rodent studies were then performed with [^18F]31, including control and P-gp knockout (k/o) mice models to validate the tracer as a non-P-gp substrate.

PARP-1, sequence (P09874 whole entry): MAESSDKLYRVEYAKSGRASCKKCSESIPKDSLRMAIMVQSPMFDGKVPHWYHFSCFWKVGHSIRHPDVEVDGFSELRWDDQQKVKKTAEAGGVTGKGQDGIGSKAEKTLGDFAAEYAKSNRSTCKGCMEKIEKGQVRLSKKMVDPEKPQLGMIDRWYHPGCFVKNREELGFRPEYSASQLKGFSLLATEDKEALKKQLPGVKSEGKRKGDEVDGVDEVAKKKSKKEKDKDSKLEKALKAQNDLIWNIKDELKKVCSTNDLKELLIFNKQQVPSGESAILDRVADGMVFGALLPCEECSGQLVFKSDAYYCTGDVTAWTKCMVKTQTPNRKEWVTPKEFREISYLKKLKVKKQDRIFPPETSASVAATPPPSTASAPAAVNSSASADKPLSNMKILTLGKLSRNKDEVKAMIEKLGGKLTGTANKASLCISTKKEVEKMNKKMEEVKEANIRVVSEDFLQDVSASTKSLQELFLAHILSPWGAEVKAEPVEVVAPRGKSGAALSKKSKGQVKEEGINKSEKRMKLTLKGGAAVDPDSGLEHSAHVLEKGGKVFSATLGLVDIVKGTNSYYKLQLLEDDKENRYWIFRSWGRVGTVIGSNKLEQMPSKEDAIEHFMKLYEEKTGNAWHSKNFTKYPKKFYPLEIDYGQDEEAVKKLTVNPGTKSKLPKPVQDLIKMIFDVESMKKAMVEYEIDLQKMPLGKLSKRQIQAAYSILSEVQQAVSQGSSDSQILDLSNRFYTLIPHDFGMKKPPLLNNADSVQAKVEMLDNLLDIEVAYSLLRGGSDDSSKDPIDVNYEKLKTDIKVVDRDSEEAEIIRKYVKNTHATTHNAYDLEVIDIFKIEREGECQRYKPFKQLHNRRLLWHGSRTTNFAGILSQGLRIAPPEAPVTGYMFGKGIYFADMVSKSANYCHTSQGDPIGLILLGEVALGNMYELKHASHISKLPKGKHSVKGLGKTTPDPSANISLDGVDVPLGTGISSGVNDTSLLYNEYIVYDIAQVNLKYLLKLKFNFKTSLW

SMILES | EC50 [1] | EC50 (PARP-1) | EC50 [2] | EC50 (MEF WT cells; Mus musculus) | IC50 (PARP-1) | other results
O=C(c1cc(Cc2n[nH]c(=O)c3ccccc23)ccc1F)N1CC2(CCCCC2)C1 [Compound 12a, 4-(4-Fluoro-3-(2-azaspiro[3.5]nonane-2-carbonyl)benzyl)phthalazin-1(2H)-one] | 39.9 µM | 0.0654 ± 0.0015 µM | 48.3 µM | 25.6 µM | – | –
CC(C)(C)OC(=O)N1CCC2(CC1)CN(C(=O)c1cc(Cc3n[nH]c(=O)c4ccccc34)ccc1F)C2 [Compound 12b, Tert-butyl 2-(2-fluoro-5-((4-oxo-3,4-dihydrophthalazin-1-yl)methyl)benzoyl)-2,7-diazaspiro[3.5]nonane-7-carboxylate] | 41.5 µM | 3.12 µM | 49.2 µM | ~23 µM | 3.12 µM | EC50 (MEF WT cells): 23.4 µM
CC(C)(C)OC(=O)N1CCC2(CCN(C(=O)c3cc(Cc4n[nH]c(=O)c5ccccc45)ccc3F)C2)C1 (stereo not shown) [Compound 15b, Tert-butyl 7-(2-fluoro-5-((4-oxo-3,4-dihydrophthalazin-1-yl)methyl)benzoyl)-2,7-diazaspiro[4.4]nonane-2-carboxylate] | 23.4 µM | 4.4 µM | 46.4 µM | 17.2 µM | 4.4 µM | fold lower PARP-1 affinity compared to the methylene congener (PARP-1; 10c vs 10a, 15b vs 15a): ~85 fold
O=C(c1cc(Cc2n[nH]c(=O)c3ccccc23)ccc1F)N1CCC2(CCCCC2)C1 [Compound 16a, 4-(4-Fluoro-3-(2-azaspiro[4.5]decane-2-carbonyl)benzyl)phthalazin-1(2H)-one] | 46.8 µM | 0.1414 ± 0.0013 µM | 51.6 µM | 42.7 µM | – | –
CC(C)(C)OC(=O)N1CCC2(CC1)CCN(C(=O)c1cc(Cc3n[nH]c(=O)c4ccccc34)ccc1F)C2 [Compound 16b, Tert-butyl 2-(2-fluoro-5-((4-oxo-3,4-dihydrophthalazin-1-yl)methyl)benzoyl)-2,8-diazaspiro[4.5]decane-8-carboxylate] | 31.6 µM | 1.1 µM | 45.9 µM | 9.4 µM | – | –
CC(C)(C)OC(=O)N1CCC2(CC1)CCN(C(=O)c1cc(Cc3n[nH]c(=O)c4ccccc34)ccc1F)CC2 [Compound 17b, Tert-butyl 9-(2-fluoro-5-((4-oxo-3,4-dihydrophthalazin-1-yl)methyl)benzoyl)-3,9-diazaspiro[5.5]undecane-3-carboxylate] | 19.2 µM | 0.453 µM | 43.4 µM | 16.9 µM | 0.453 µM | –
O=C(c1cc(Cc2n[nH]c(=O)c3ccccc23)ccc1F)N1CCC2(CC1)CCN(C(=O)C1CC1)CC2 [Compound 17d, 4-(3-(9-(Cyclopropanecarbonyl)-3,9-diazaspiro[5.5]undecane-3-carbonyl)-4-fluorobenzyl)phthalazin-1(2H)-one] | 21.6 µM | 0.0443 µM | 49.7 µM | 24.8 µM | 0.0443 µM | –
O=C(c1cc(Cc2n[nH]c(=O)c3ccccc23)ccc1F)N1CCCC(OCCF)CC1 (stereo not shown) [Compound 33, 4-(4-fluoro-3-(4-(2-fluoroethoxy)azepane-1-carbonyl)benzyl)phthalazin-1(2H)-one] | – | 0.00562 ± 0.0011 µM | – | – | – | EC50 (OVCAR8 cells): 11.3 ± 1.3 µM
O=C(c1cc(Cc2n[nH]c(=O)c3ccccc23)ccc1F)N1CC2(C1)CN(c1ccc(F)cc1)C2 [Compound 40, 4-(4-fluoro-3-(6-(4-fluorophenyl)-2,6-diazaspiro[3.3]heptane-2-carbonyl)benzyl)phthalazin-1(2H)-one] | – | 0.000376 µM | – | – | – | EC50 (OVCAR8 cells): 12 µM
O=C(c1cc(Cc2n[nH]c(=O)c3ccccc23)ccc1F)N1CCC(OCC[18F])CC1 [[^18F]31] | – | – | – | – | – | parent compound intact ([3]; 37 min): 45%; parent compound intact ([3]; 40 min): 42%; brain uptake (PET) [4]: low brain uptake; brain uptake (PET) ([4]; listed as [18F]31): no appreciable brain uptake; decomposition of the parent compound [5]: over 80%
